Laboratory results as given in patent US20230099441A1, “HETEROCYCLIC COMPOUND, APPLICATION THEREOF, AND COMPOSITION CONTAINING SAME” (GenEros Biopharma Ltd., priority 2019, published 2023).

System: STAT5 Y694 phosphorylation
Assay: Protein electrophoresis and blotting of STAT5 Y694 phosphorylation in Jurkat cells stimulated with human interferon beta
Type: cell-based
Conditions: for Inhibiting Ratio (0% for vehicle control): 1 hour pretreatment, 20 ng/ml human interferon beta 30 minutes, pSTAT5/GAPDH; for Example of Effect 1: Inhibiting Ability (Protein Electrophoresis and Blotting): observed pSTAT5 bands at 10 μM and 100 μM
Experimental: Example of Effect 1: Protein Electrophoresis and Blotting Experiment
Standard protein electrophoresis and chemiluminescence imaging equipment (Bio-Rad);
Protein lysate RIPA (Lianke Biological; Cat #WB020); Western blot transfer membrane PVDF (Millipore; Cat #IPVH00010);
Jurkat cells (ATCC American Standard Culture Center, TIB152) were cultured in a 6-well plate at a density of 1×10^6/ml with RPMI medium […] 10% fetal bovine serum in a humidified incubator at 37° C. and maintained at 5% carbon dioxide overnight. On the second day, the cells were pretreated with compounds of different concentrations (the mother liquor of the compound prepared by dimethyl sulfoxide was diluted in the medium at the required concentration) for 1 hour, and then stimulated with 20 ng/ml human interferon beta for 30 minutes, it was mixed thoroughly and then placed in an incubator at 37° C. environment. […] Then an appropriate volume of RIPA Lysis Solution was added, it was mixed well, and placed on ice for 1 hour, inverted and mixed several times in the middle. Then, the cell lysate was centrifuged at 12000 rpm at 4° C. for 10 minutes, and the supernatant was transferred to another test tube, aliquoted and stored at −20° C. until use.
An equal volume of protein lysate was mixed with an appropriate 6-fold protein loading buffer (Biyun Tian Biochemical Company P0015F), and the mixture was heated at 95 degrees for 10 minutes, after full denaturation, the protein sample was added to the polyacrylamide gel (self-made, raw material purchased from Soleibao Biotechnology Company A1010, 30% acrylamide solution), and electrophoresis was performed at the appropriate voltage for 1 hour, until the strips were fully separated. It was transferred to a polyvinylidene fluoride membrane according to standard procedures, and blocked with 5% skim milk for 1 hour, and the specified antibody was added, and it was diluted 1:1000 in 3% bovine serum albumin, and it was incubated overnight for four degrees. It was thoroughly rinsed, incubated with the secondary antibody, exposed to chemiluminescence and signals were collected. ImageJ software was used to quantify the obtained chemiluminescence results. The same area was selected, the gray values of STAT5 phosphorylation band and GAPDH band of each sample were analyzed, and the ratio of pSTAT5/GAPDH level was calculated. The value of the solvent-treated sample was 100%, and the remaining samples were converted into relative data in the same proportion, that is, the percentage corresponding to the solvent sample. […] The solvent control group was the same as the test compound group except that DMSO was used instead of the DMSO solution of the test compound. N1 (Pimozide) was a specific positive control.

| Structure (SMILES) | Inhibiting Ratio (0% for vehicle control) (1 μM) | Inhibiting Ratio (0% for vehicle control) (10 μM) | Inhibiting Ratio (0% for vehicle control) (100 μM) | Example of Effect 1: Inhibiting Ability (Protein Electrophoresis and Blotting) |
| --- | --- | --- | --- | --- |
| O=c1[nH]c2ccccc2n1C1CCN(CCCC(c2ccc(F)cc2)c2ccc(F)cc2)CC1 [Example N1, Pimozide, reference compound] | −0.6% | 5.9% | 95.4% | + |
| CCC(=O)N1CCC(n2c(=O)oc3ccccc32)CC1 [Example P1, 3-(1-propionylpiperidin-4-yl)benzo[d]oxazole-2(3H)-one] |  |  |  | − |
| O=C(Cc1ccncc1)N1CCC(n2c(=O)oc3ccccc32)CC1 [Example P3, 3-(1-(2-(pyridin-4-yl)acetyl)piperidin-4-yl)benzo[d]oxazole-2(3H)-one] |  |  |  | − |
| O=C(Cc1ccc(C(F)(F)F)cc1)N1CCC(n2c(=O)oc3ccccc32)CC1 [Example P8, 3-(1-(2-(4-(trifluoromethyl)phenyl)acetyl)piperidin-4-yl)benzo[d]oxazole-2(3H)-one] |  |  |  | − |
| O=c1oc2ccccc2n1-c1ccn2c(=O)cc(Cc3ccc(F)cc3)cc2c1 [Example P9, 3-(2-(4-fluorobenzyl)-4-oxo-4H-quinazine-8-yl)benzo[d]oxazole-2(3H)-one] |  |  |  | − |
| O=C(CC(F)(F)F)N1CCC(n2c(=O)[nH]c3ccccc32)CC1 [Example X2, 1-(1-(3,3,3-trifluoropropionyl)piperidin-4-yl)-1H-benzo[d]imidazole-2(3H)-one] |  |  |  | − |
| O=C(Cc1ccncc1)N1CCC(n2c(=O)[nH]c3ccccc32)CC1 [Example X3, 1-(1-(2-(pyridin-4-yl)acetyl)piperidin-4-yl)-1H-benzo[d]imidazole-2(3H)-one] | 17.4% | 4.7% | 87.5% | − |
| O=C(Cc1ccccc1)N1CCC(n2c(=O)[nH]c3ccccc32)CC1 [Example X4, 1-(1-(2-phenylacetyl)piperidin-4-yl)-1H-benzo[d]imidazole-2(3H)-one] | 21.2% | 5.3% | 87.8% | − |
| O=C(O)c1ccc(CC(=O)N2CCC(n3c(=O)[nH]c4ccccc43)CC2)cc1 [Example X6, 4-(2-oxo-2-(4-(2-oxo-2,3-dihydro-1H-benzo[d]imidazol-1-yl)piperidine-1-yl)ethyl)benzoic acid] |  |  |  | − |
| Cc1ccc(CC(=O)N2CCC(n3c(=O)[nH]c4ccccc43)CC2)cc1 [Example X7, 1-(1-(2-(p-tolyl)acetyl)piperidin-4-yl)-1H-benzo[d]imidazole-2(3H)-one] | −27.9% | −13.6% | 88.5% | − |
| O=c1[nH]c2ccccc2n1-c1ccn2c(=O)cc(Cc3ccc(F)cc3)cc2c1 [Example X9, 2-(4-fluorobenzyl)-8-(2-oxo-2,3-dihydro-1H-benzo[d]imidazol-1-yl)-4H-quinazine-4-one] | 6.0% | 44.3% | 100.0% | + |
| COc1cccc2c1[nH]c(=O)n2C1CCN(C(=O)Cc2ccc(C(F)(F)F)cc2)CC1 [GEN1-003, 4-methoxy-1-(1-(2-(4-(trifluoromethyl)phenyl)acetyl)piperidin-4-yl)-1H-benzo[d]imidazole-2(3H)-one] | −10.8% | 22.2% | 94.1% | + |
| O=C(Cc1ccc(C(F)(F)F)cc1)N1CCC(n2c(=O)[nH]c3cc(C(F)(F)F)ccc32)CC1 [GEN1-005, 5-(trifluoromethyl)-1-(1-(2-(4-(trifluoromethyl)phenyl)acetyl)piperidin-4-yl)-1H-benzo[d]imidazole-2(3H)-one] | 28.0% | 44.4% | 95.6% | + |
| N#Cc1ccc2c(c1)[nH]c(=O)n2C1CCN(C(=O)Cc2ccc(C(F)(F)F)cc2)CC1 [GEN1-006, 2-oxo-1-(1-(2-(4-(trifluoromethyl)phenyl)acetyl)piperidin-4-yl)-2,3-dihydro-1H-benzo[d]imidazole-5-carbonitrile] | −2.8% | 35.7% | 94.8% | + |
| COc1ccc2c(c1)[nH]c(=O)n2C1CCN(C(=O)Cc2ccc(C(F)(F)F)cc2)CC1 [GEN1-007, 5-methoxy-1-(1-(2-(4-(trifluoromethyl)phenyl)acetyl)piperidin-4-yl)-1H-benzo[d]imidazole-2(3H)-one] | 42.4% | 54.8% | 96.6% | + |
| O=C(Cc1ccc(C(F)(F)F)cc1)N1CCC(n2c(=O)[nH]c3ccc(C(F)(F)F)cc32)CC1 [GEN1-009, 6-(trifluoromethyl)-1-(1-(2-(4-(trifluoromethyl)phenyl)acetyl)piperidin-4-yl)-1H-benzo[d]imidazole-2(3H)-one] |  |  |  | + |
| N#Cc1ccc2[nH]c(=O)n(C3CCN(C(=O)Cc4ccc(C(F)(F)F)cc4)CC3)c2c1 [GEN1-010, 2-oxo-3-(1-(2-(4-(trifluoromethyl)phenyl)acetyl)piperidin-4-yl)-2,3-dihydro-1H-benzo[d]imidazole-5-carbonitrile] | −29.0% | 17.5% | 94.8% | + |
| O=C(Cc1ccc(C(F)(F)F)cc1)N1CCC(n2c(=O)[nH]c3ccc(O)cc32)CC1 [GEN1-012, 6-hydroxy-1-(1-(2-(4-(trifluoromethyl)phenyl)acetyl)piperidin-4-yl)-1H-benzo[d]imidazole-2 (3H)-one] |  |  |  | + |
| COc1cccc2[nH]c(=O)n(C3CCN(C(=O)Cc4ccc(C(F)(F)F)cc4)CC3)c12 [GEN1-015, 7-methoxy-1-(1-(2-(4-(trifluoromethyl)phenyl)acetyl)piperidin-4-yl)-1H-benzo[d]imidazole-2(3H)-one] | 9.7% | 43.4% | 95.7% | + |
| O=C(c1ccc(C(F)(F)F)cc1)N1CCC(n2c(=O)[nH]c3ccccc32)CC1 [GEN1-017, 1-(1-(4-(trifluoromethyl)benzoyl)piperidin-4-yl)-1H-benzo[d]imidazole-2(3H)-one] |  |  |  | − |
| O=C(CCc1ccc(C(F)(F)F)cc1)N1CCC(n2c(=O)[nH]c3ccccc32)CC1 [GEN1-018, 1-(1-(3-(4-(trifluoromethyl)phenyl)propionyl)piperidin-4-yl)-1H-benzo[d]imidazole-2(3H)-one] | −36.5% | −6.2% | 98.6% | + |
| O=C(Cc1ccc(C(F)(F)F)cc1)N[C@H]1CC[C@@H](n2c(=O)[nH]c3ccccc32)CC1 [GEN1-021, Cis-N-(4-(2-oxo-2,3-dihydro-1H-benzo[d]imidazol-1-yl)cyclohexyl)-2-(4-(trifluoromethyl)phenyl)acetamide] | −39.8% | −26.3% | 97.6% | + |
| O=C(Cc1ccc(C(F)(F)F)cc1)N[C@H]1CC[C@H](n2c(=O)[nH]c3ccccc32)CC1 [GEN1-022, Trans-N-(4-(2-oxo-2,3-dihydro-1H-benzo[d]imidazol-1-yl)cyclohexyl)-2-(4-(trifluoromethyl)phenyl)acetamide] | 15.8% | 29.5% | 81.2% | − |
